Tests used:
Assay type in all cases: in vivo, Arabidopsis thaliana
[1] = tested on: phloem-specific IR-PTGS sensor; experiment: Visual chlorotic phenotype of sprayed phloem-specific IR-PTGS sensor (SUC-SUL plants); settings: for vein-centered chlorotic phenotype (IR-PTGS activity): sprayed on phloem-specific IR-PTGS sensor; for chlorotic phenotype / PTGS activity, phloem-specific reporter: 2 mM SA with 0.02% Silwet L-77, 5 days, SUC-SUL
Description: A. […]
In step (b), said molecule, microorganism or extract can be applied either at seedling stage or at later developmental stages such as at rosette stage. This molecule, microorganism or extract is applied either in liquid medium in (micro) well-plates, by infiltration using a needle-less syringe or vacuum, or by spray using a concentration of surfactant that is known from people skilled in the art.
Visual observation of step (c) can be made several days, preferably 4 to 5 days, after step (b) The term “silencing” means down-regulating or antagonizing, at least partly, a targeted gene transcript.
For this purpose, they have sprayed a previously characterized phloem-specific IR-PTGS sensor (Dunoyer et al., 2005) with either (1) Salicylic acid (SA), a well-characterized phytohormone that plays a critical role in resistance against biotrophic pathogens, (2) 2,6-dichloroisonicotonic acid and benzo-(1,2,3)-thiadiazole-7-carbothioic acid S-methyl ester (BTH), a functional analog of SA that is regularly used by farmers to enhance disease resistance in crops, (3) Aliette, formulated fosetyl-Aluminium that can stimulate plant antimicrobial defense in cultivated plants but also protect them from fungal and oomycete infections through a potent and systemic fungicide activity, (4) Serenade, which is composed of formulated Bacillus subtilis (5) formulated Laminarine, a beta 1-3 glucan that mimics fungal cell wall and therefore promote natural antifungal defense responses in some cultivated plants; and have further monitored the effects of such treatments on the vein-centered chlorotic phenotype of this IR-PTGS reporter system. […] It is noteworthy that the presented molecular analyses allow us (i) to detect at which steps of the PTGS a given molecule is acting (small RNA biogenesis and/or RISC activity) (ii) to quantify the strength by which the candidate molecules is modulating RNA silencing in a given tissue that is relevant for disease management. […]

[2] = tested on: artificial siRNAs
Description: These level analyses will determine (i) at which steps of the RNA silencing pathway a given molecule, microorganism or extract is acting (small RNA biogenesis, accumulation and/or activity) (ii) the intensity by which a given molecule, microorganism or extract is modulating RNA silencing. Regarding the quantification of artificial or endogenous small RNA accumulation, Low Molecular Weight (LMW) Northern blot analyses or Real Time quantitative PCR (RT-qPCR) analyses can be used. Concerning the quantification of artificial or endogenous small RNA targets, High Molecular Weight (HMW) Northern analyses or RT-PCR analyses can be used. […]

[3] = tested on: SUL protein; experiment: Western blot of SUL protein levels in SA-treated SUC-SUL leaves; settings: 2 mM SA + 0.01% Silwet L-77, 3 days, vs Mock
Protocol: C. Western blot analyses showing SUL and CIP4 protein levels in SUC-SUL leaves treated with either Mock (0.01% Silwet L-77 only) or with 2 mM of SA (+0.01% Silwet L-77) for 3 days.
(§1) For this purpose, they have sprayed a previously characterized phloem-specific IR-PTGS sensor (Dunoyer et al., 2005) with either (1) Salicylic acid (SA), a well-characterized phytohormone that plays a critical role in resistance against biotrophic pathogens, (2) 2,6-dichloroisonicotonic acid and benzo-(1,2,3)-thiadiazole-7-carbothioic acid S-methyl ester (BTH), a functional analog of SA that is regularly used by farmers to enhance disease resistance in crops, (3) Aliette, formulated fosetyl-Aluminium that can stimulate plant antimicrobial defense in cultivated plants but also protect them from fungal and oomycete infections through a potent and systemic fungicide activity, (4) Serenade, which is composed of formulated Bacillus subtilis (5) formulated Laminarine, a beta 1-3 glucan that mimics fungal cell wall and therefore promote natural antifungal defense responses in some cultivated plants; and have further monitored the effects of such treatments on the vein-centered chlorotic phenotype of this IR-PTGS reporter system. […]

[4] = tested on: SUL transcript; experiment: RT-qPCR of SUL transcript levels in SA-treated SUC-SUL leaves; settings: 2 mM SA + 0.01% Silwet L-77, 3 days, vs Mock
Protocol: B. RT-qPCR analysis depicting SUL and CIP4 transcript levels in SUC-SUL leaves treated with either Mock (0.01% Silwet L-77 only) or with 2 mM of SA (+0.01% Silwet L-77) for 3 days.
as §1

[5] = tested on: biosensor specific to xylem parenchyma cells; experiment: Visual chlorosis of sprayed xylem-specific biosensors (AAP6-p::SUL-LUS, IRX3-p::SUL-LUS); settings: 2 mM SA with 0.02% Silwet L-77, 5 days, AAP6-p::SUL-LUS and IRX3-p::SUL-LUS; listed as SA
Protocol: Picture of 5-week-old SUC-SUL, HYD-p::SUL-LUS, AAP6-p::SUL-LUS, IRX3-p::SUL-LUS or GC1-p::SUL-LUS plants treated either Mock (0.02% Silwet L-77 only) or 2 mM of SA (with 0.02% Silwet L-77) for 5 days.
To test whether the increase level of PTGS detected in SA-treated phloem-specific IR-PTGS sensor is detectable to other tissues, the inventors have sprayed different tissue-specific biosensors with the same concentration of SA. The biosensors specific to hydathodes, xylem parenchyma cells, guard cells and companion cells of phloem were sprayed with SA and the level of chlorosis was assessed 5 day later (FIG. 6). […] These observations therefore highlight the importance of using different tissue-specific biosensors to screen natural or synthetic compounds, microorganisms, macro- or micro-organism extracts that can have a PTGS inducer activity specifically in a given tissue that is relevant to manage a specific disease. On the contrary, we are anticipating that the whole series of reporters will be also exploited to identify molecules, microorganisms or extracts that can induce PTGS/immune responses in all the above tissues. Such compounds, microorganisms or extracts will have the potential to confer broad-spectrum disease resistance and to restrict growth of pathogens with different modes of entry, propagation and replication. […]

SMILES: O=C(O)c1cc(Cl)nc(Cl)c1 [2,6-dichloroisonicotonic acid]
- vein-centered chlorotic phenotype (IR-PTGS activity) [1]: significant enhanced chlorotic phenotypes

SMILES: CSC(=O)c1cccc2nnsc12 [BTH, benzo-(1,2,3)-thiadiazole-7-carbothioic acid S-methyl ester]
- vein-centered chlorotic phenotype (IR-PTGS activity) [1]: significant enhanced chlorotic phenotypes

SMILES: O=C(O)c1ccccc1O [Salicylic acid]
- accumulation of artificial siRNAs [2]: no significant effect
- SUL protein levels [3]: significant decrease
- SUL transcript accumulation [4]: mild reduction
- chlorotic phenotype / PTGS activity, xylem parenchyma reporters [5]: not in other silencing reporter tested
- chlorotic phenotype / PTGS activity, phloem-specific reporter [1]: promotes PTGS activity
- chlorotic phenotype / PTGS activity, phloem-specific reporter ([1]; listed as SA): significant enhanced chlorotic phenotype
- vein-centered chlorotic phenotype (IR-PTGS activity) [1]: significant enhanced chlorotic phenotypes

Reference: patent US10550400B2, “Methods to monitor post-translational gene silencing activity in plant tissues/cell types relevant for pathogen entry, propagation or replication” (Paris Sciences et Lettres—Quartier Latin, priority 2014, dated 2020)
